Measured values reported in patent publication US20240043404A1 (AbbVie Inc., priority 2009, published 2024).

Test system: RS4;11 cells
Experiment: RS4;11 cell viability assay (CellTiter Glo);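 further: acute lymphoblastic leukemia line RS4,11, EC50 derived from percentage of viable cells after treatment relative to untreated controls, cell killing taken as a measure of Bcl-2 inhibition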
Format: cell-based, human
Settings: Homo sapiens, RS4-11, 48 h, 50,000 cells per well, 10% human serum, 48 hours; read-out: RS4; 11 EC50 Values
Experimental: The acute lymphoblastic leukemia (ALL) cell line RS4;11 was used as the primary human cell line to assess the cellular activity of Bcl-2 selective agents in vitro and their efficacy in vivo.
Cell cytotoxicity EC50 values were assessed using CellTiter Glo (Promega) according to the manufacturer's recommendations. The EC50 values were determined as a percentage of viable cells following treatment compared to the untreated control cells.

Structure (SMILES)	EC50
CC1(C)CC(c2ccc(Cl)cc2)=C(CN2CCN(c3ccc(C(=O)NS(=O)(=O)c4ccc(NCC5CCOCC5)c([N+](=O)[O-])c4)c(Oc4ccc5[nH]ccc5c4)c3)CC2)CO1 [Example 23, 4-(4-{[4-(4-chlorophenyl)-6,6-dimethyl-5,6-dihydro-2H-pyran-3-yl]methyl}piperazin-1-yl)-2-(1H-indol-5-yloxy)-N-({3-nitro-4-[(tetrahydro-2H-pyran-4-ylmethyl)amino]phenyl}sulfonyl)benzamide]	45 nM
CC1(C)CCC(CN2CCN(c3ccc(C(=O)NS(=O)(=O)c4ccc(OCC5CCOCC5)c([N+](=O)[O-])c4)c(Oc4cnc5[nH]ccc5c4)c3)CC2)=C(c2ccc(Cl)cc2)C1 [Example 24, 4-(4-{[2-(4-chlorophenyl)-4,4-dimethylcyclohex-1-en-1-yl]methyl}piperazin-1-yl)-N-{[3-nitro-4-(tetrahydro-2H-pyran-4-ylmethoxy)phenyl]sulfonyl}-2-(1H-pyrrolo[2,3-b]pyridin-5-yloxy)benzamide]	9.83 nM
CC1(C)CCC(CN2CCN(c3ccc(C(=O)NS(=O)(=O)c4ccc(NCC5COCCO5)c([N+](=O)[O-])c4)c(Oc4cnc5[nH]ccc5c4)c3)CC2)=C(c2ccc(Cl)cc2)C1 (stereo not drawn) [Example 25, 4-(4-{[2-(4-chlorophenyl)-4,4-dimethylcyclohex-1-en-1-yl]methyl}piperazin-1-yl)-N-({4-[(1,4-dioxan-2-ylmethyl)amino]-3-nitrophenyl}sulfonyl)-2-(1H-pyrrolo[2,3-b]pyridin-5-yloxy)benzamide]	7 nM
CC1(C)CCC(CN2CCN(c3ccc(C(=O)NS(=O)(=O)c4ccc(NCC(F)(F)F)c([N+](=O)[O-])c4)c(Oc4cnc5[nH]ccc5c4)c3)CC2)=C(c2ccc(Cl)cc2)C1 [Example 26, 4-(4-{[2-(4-chlorophenyl)-4,4-dimethylcyclohex-1-en-1-yl]methyl}piperazin-1-yl)-N-({3-nitro-4-[(2,2,2-trifluoroethyl)amino]phenyl}sulfonyl)-2-(1H-pyrrolo[2,3-b]pyridin-5-yloxy)benzamide]	58.9 nM
CC1(C)CCC(CN2CCN(c3ccc(C(=O)NS(=O)(=O)c4ccc(NCCC(F)(F)F)c([N+](=O)[O-])c4)c(Oc4cnc5[nH]ccc5c4)c3)CC2)=C(c2ccc(Cl)cc2)C1 [Example 27, 4-(4-{[2-(4-chlorophenyl)-4,4-dimethylcyclohex-1-en-1-yl]methyl}piperazin-1-yl)-N-({3-nitro-4-[(3,3,3-trifluoropropyl)amino]phenyl}sulfonyl)-2-(1H-pyrrolo[2,3-b]pyridin-5-yloxy)benzamide]	332 nM
CC1(C)CCC(CN2CCN(c3ccc(C(=O)NS(=O)(=O)c4ccc(OC[C@@H]5COCCO5)c([N+](=O)[O-])c4)c(Oc4cnc5[nH]ccc5c4)c3)CC2)=C(c2ccc(Cl)cc2)C1 [Example 28, 4-(4-{[2-(4-chlorophenyl)-4,4-dimethylcyclohex-1-en-1-yl]methyl}piperazin-1-yl)-N-({4-[(2S)-1,4-dioxan-2-ylmethoxy]-3-nitrophenyl}sulfonyl)-2-(1H-pyrrolo[2,3-b]pyridin-5-yloxy)benzamide]	41.9 nM
CO[C@H]1CC[C@@H](CNc2ccc(S(=O)(=O)NC(=O)c3ccc(N4CCN(CC5=C(c6ccc(Cl)cc6)CC(C)(C)CC5)CC4)cc3Oc3cnc4[nH]ccc4c3)cc2[N+](=O)[O-])CC1 [Example 29, Cis-4-(4-{[2-(4-chlorophenyl)-4,4-dimethylcyclohex-1-en-1-yl]methyl}piperazin-1-yl)-N-[(4-{[(4-methoxycyclohexyl)methyl]amino}-3-nitrophenyl)sulfonyl]-2-(1H-pyrrolo[2,3-b]pyridin-5-yloxy)benzamide]	20.5 nM
CC1(C)CCC(CN2CCN(c3ccc(C(=O)NS(=O)(=O)c4ccc(OC[C@H]5COCCO5)c([N+](=O)[O-])c4)c(Oc4cnc5[nH]ccc5c4)c3)CC2)=C(c2ccc(Cl)cc2)C1 [Example 30, 4-(4-{[2-(4-chlorophenyl)-4,4-dimethylcyclohex-1-en-1-yl]methyl}piperazin-1-yl)-N-({4-[(2R)-1,4-dioxan-2-ylmethoxy]-3-nitrophenyl}sulfonyl)-2-(1H-pyrrolo[2,3-b]pyridin-5-yloxy)benzamide]	15.3 nM
CC1(C)CC(c2ccc(Cl)cc2)=C(CN2CCN(c3ccc(C(=O)NS(=O)(=O)c4ccc(NCC5COCCO5)c([N+](=O)[O-])c4)c(Oc4cnc5[nH]ccc5c4)c3)CC2)CO1 (stereo not drawn) [Example 31, 4-(4-{[4-(4-chlorophenyl)-6,6-dimethyl-5,6-dihydro-2H-pyran-3-yl]methyl}piperazin-1-yl)-N-({4-[(1,4-dioxan-2-ylmethyl)amino]-3-nitrophenyl}sulfonyl)-2-(1H-pyrrolo[2,3-b]pyridin-5-yloxy)benzamide]	15.7 nM
CC1(C)CC(c2ccc(Cl)cc2)=C(CN2CCN(c3ccc(C(=O)NS(=O)(=O)c4ccc(OCC5COCCO5)c([N+](=O)[O-])c4)c(Oc4cnc5[nH]ccc5c4)c3)CC2)CO1 (stereo not drawn) [Example 32, 4-(4-{[4-(4-chlorophenyl)-6,6-dimethyl-5,6-dihydro-2H-pyran-3-yl]methyl}piperazin-1-yl)-N-{[4-(1,4-dioxan-2-ylmethoxy)-3-nitrophenyl]sulfonyl}-2-(1H-pyrrolo[2,3-b]pyridin-5-yloxy)benzamide]	81.5 nM
CC1(C)CC(c2ccc(Cl)cc2)=C(CN2CCN(c3ccc(C(=O)NS(=O)(=O)c4ccc(N[C@H]5CC[C@H](N6CCOCC6)CC5)c([N+](=O)[O-])c4)c(Oc4cnc5[nH]ccc5c4)c3)CC2)CO1 [Example 33, Trans-4-(4-{[4-(4-chlorophenyl)-6,6-dimethyl-5,6-dihydro-2H-pyran-3-yl]methyl}piperazin-1-yl)-N-({4-[(4-morpholin-4-ylcyclohexyl)amino]-3-nitrophenyl}sulfonyl)-2-(1H-pyrrolo[2,3-b]pyridin-5-yloxy)benzamide]	7.11 nM
CO[C@H]1CC[C@H](CNc2ccc(S(=O)(=O)NC(=O)c3ccc(N4CCN(CC5=C(c6ccc(Cl)cc6)CC(C)(C)CC5)CC4)cc3Oc3cnc4[nH]ccc4c3)cc2[N+](=O)[O-])CC1 [Example 34, Trans-4-(4-{[2-(4-chlorophenyl)-4,4-dimethylcyclohex-1-en-1-yl]methyl}piperazin-1-yl)-N-[(4-{[(4-methoxycyclohexyl)methyl]amino}-3-nitrophenyl)sulfonyl]-2-(1H-pyrrolo[2,3-b]pyridin-5-yloxy)benzamide]	7.48 nM
CC1(C)CC(c2ccc(Cl)cc2)=C(CN2CCN(c3ccc(C(=O)NS(=O)(=O)c4cnc(OCC5CCOCC5)c(C#N)c4)c(Oc4cnc5[nH]ccc5c4)c3)CC2)CO1 [Example 35, 4-(4-{[4-(4-chlorophenyl)-6,6-dimethyl-5,6-dihydro-2H-pyran-3-yl]methyl}piperazin-1-yl)-N-{[5-cyano-6-(tetrahydro-2H-pyran-4-ylmethoxy)pyridin-3-yl]sulfonyl}-2-(1H-pyrrolo[2,3-b]pyridin-5-yloxy)benzamide]	291 nM
CC1(C)CCC(CN2CCN(c3ccc(C(=O)NS(=O)(=O)c4cnc(OCC5CCOCC5)c(C#N)c4)c(Oc4cnc5[nH]ccc5c4)c3)CC2)=C(c2ccc(Cl)cc2)C1 [Example 36, 4-(4-{[2-(4-chlorophenyl)-4,4-dimethylcyclohex-1-en-1-yl]methyl}piperazin-1-yl)-N-{[5-cyano-6-(tetrahydro-2H-pyran-4-ylmethoxy)pyridin-3-yl]sulfonyl}-2-(1H-pyrrolo[2,3-b]pyridin-5-yloxy)benzamide]	181 nM
CC1(C)CCC(CN2CCN(c3ccc(C(=O)NS(=O)(=O)c4ccc(OCC5(F)CCOCC5)c([N+](=O)[O-])c4)c(Oc4cnc5[nH]ccc5c4)c3)CC2)=C(c2ccc(Cl)cc2)C1 [Example 37, 4-(4-{[2-(4-chlorophenyl)-4,4-dimethylcyclohex-1-en-1-yl]methyl}piperazin-1-yl)-N-({4-[(4-fluorotetrahydro-2H-pyran-4-yl)methoxy]-3-nitrophenyl}sulfonyl)-2-(1H-pyrrolo[2,3-b]pyridin-5-yloxy)benzamide]	1.18 nM
CC1(C)CCC(CN2CCN(c3ccc(C(=O)NS(=O)(=O)c4ccc(OCC5CCOCC5)c(C(N)=O)c4)c(Oc4cnc5[nH]ccc5c4)c3)CC2)=C(c2ccc(Cl)cc2)C1 [Example 38, N-{[3-(aminocarbonyl)-4-(tetrahydro-2H-pyran-4-ylmethoxy)phenyl]sulfonyl}-4-(4-{[2-(4-chlorophenyl)-4,4-dimethylcyclohex-1-en-1-yl]methyl}piperazin-1-yl)-2-(1H-pyrrolo[2,3-b]pyridin-5-yloxy)benzamide]	3510 nM
CC1(C)CCC(CN2CCN(c3ccc(C(=O)NS(=O)(=O)c4ccc(N[C@H]5CC[C@@H](N6CCOCC6)CC5)c([N+](=O)[O-])c4)c(Oc4cnc5[nH]ccc5c4)c3)CC2)=C(c2ccc(Cl)cc2)C1 [Example 39, Cis-4-(4-{[2-(4-chlorophenyl)-4,4-dimethylcyclohex-1-en-1-yl]methyl}piperazin-1-yl)-N-({4-[(4-morpholin-4-ylcyclohexyl)amino]-3-nitrophenyl}sulfonyl)-2-(1H-pyrrolo[2,3-b]pyridin-5-yloxy)benzamide]	19.7 nM
CC1(C)CCC(CN2CCN(c3ccc(C(=O)NS(=O)(=O)c4cnc(OCC5CCOCC5)c(Cl)c4)c(Oc4cnc5[nH]ccc5c4)c3)CC2)=C(c2ccc(Cl)cc2)C1 [Example 40, 4-(4-{[2-(4-chlorophenyl)-4,4-dimethylcyclohex-1-en-1-yl]methyl}piperazin-1-yl)-N-{[5-chloro-6-(tetrahydro-2H-pyran-4-ylmethoxy)pyridin-3-yl]sulfonyl}-2-(1H-pyrrolo[2,3-b]pyridin-5-yloxy)benzamide]	99.7 nM
CC1(C)CC(c2ccc(Cl)cc2)=C(CN2CCN(c3ccc(C(=O)NS(=O)(=O)c4cnc(OCC5CCOCC5)c(Cl)c4)c(Oc4cnc5[nH]ccc5c4)c3)CC2)CO1 [Example 41, 4-(4-{[4-(4-chlorophenyl)-6,6-dimethyl-5,6-dihydro-2H-pyran-3-yl]methyl}piperazin-1-yl)-N-{[5-chloro-6-(tetrahydro-2H-pyran-4-ylmethoxy)pyridin-3-yl]sulfonyl}-2-(1H-pyrrolo[2,3-b]pyridin-5-yloxy)benzamide]	58 nM

Same assay, conditions: Homo sapiens, RS4-11, Table 4, selected compounds in U.S. Pat. Application No. 12/631404; read-out: RS4; 11 EC50

Structure (SMILES)	EC50
CC1(C)CC(c2ccc(Cl)cc2)=C(CN2CCN(c3ccc(C(=O)NS(=O)(=O)c4ccc(NCC5CCOCC5)c([N+](=O)[O-])c4)c(Oc4ccc5[nH]ccc5c4)c3)CC2)CO1 [Example 23, 4-(4-{[4-(4-chlorophenyl)-6,6-dimethyl-5,6-dihydro-2H-pyran-3-yl]methyl}piperazin-1-yl)-2-(1H-indol-5-yloxy)-N-({3-nitro-4-[(tetrahydro-2H-pyran-4-ylmethyl)amino]phenyl}sulfonyl)benzamide]	45 nM

Same assay, conditions: Homo sapiens, RS4-11, Table 5, direct comparison Z=N with corresponding analogs Z=C; read-out: RS4; 11 EC50

Structure (SMILES)	EC50
CC1(C)CC(c2ccc(Cl)cc2)=C(CN2CCN(c3ccc(C(=O)NS(=O)(=O)c4ccc(NCC5CCOCC5)c([N+](=O)[O-])c4)c(Oc4ccc5[nH]ccc5c4)c3)CC2)CO1 [Example 23, 4-(4-{[4-(4-chlorophenyl)-6,6-dimethyl-5,6-dihydro-2H-pyran-3-yl]methyl}piperazin-1-yl)-2-(1H-indol-5-yloxy)-N-({3-nitro-4-[(tetrahydro-2H-pyran-4-ylmethyl)amino]phenyl}sulfonyl)benzamide]	45 nM
